Data reported in patent publication US4939173A, “Aryloxy alkanols as anti-retrovirus agents” (Merrell Dow Pharmaceuticals Inc., priority 1988, dated 1990).
Converted amounts (≈) assume the structure as drawn.

Columns and labels:
[1] = test system: Moloney murine leukemia virus (MoLV); experiment: in vitro XC plaque assay: inhibition of murine leukemia virus plaque growth (mouse SC-1 cells, rat XC cells); format: cell-based; settings: SC1, compounds added 2 hours prior to virus, read-out: IC50 (concentration giving a 50% inhibition of virus plaque growth)
Procedure: This assay was performed according to the method of Rowe et al. (Virology, 1970, 42, 1136-39) as previously described by L. Hsu, et al. (J. Virological Methods, 1980, 1, 167-77) and T. L. Bowlin and M. R. Proffitt (J. Interferon Res., 983, 3(1), 19-31). Mouse SC-1 cells (fibroblast) (10^5) were seeded into each well of 6-well cluster plates (Costar #3506) in 4 ml Minimum Essential Medium (MEM) with 10% Fetal Calf Serum (FCS). Following an 18 hour incubation period (37° C.), Moloney murine leukemia virus (MoLV) was applied at a predetermined titer to give optimal (i.e. countable) numbers of virus plaques. Compounds were added 2 hours prior to addition of the virus. Three days later the culture medium was removed, the SC-1 cell monolayers were exposed to UV irradiation (1800 ergs), and rat XC cells (10^6) were seeded into each well in 4 ml MEM. Following an additional 3 day incubation (37° C.), these cells were fixed with ethyl alcohol (95%) and stained with 0.3% crystal violet. Plaques were then counted under low magnification. The antiviral activities of various compounds of this invention are tabulated in Table I in terms of the IC50, i,e, the concentration giving a 50% inhibition of virus plaque growth.

HIVlGB8 strain of HIV-1 = experiment: anti-HIV activity in JM T-cells pretreated with HIV-1 (syncytial cell count and p24 antigen); format: cell-based; settings: after 4 days; for Syncytial count: untreated 29
Procedure: To further confirm the antiretroviral activity of these compounds, 6-(4-phenylphenoxy)hexan-1-ol was evaluated for activity against HIV. Following overnight pretreatment of T-cells (JM cells) with the HIVlGB8 strain of HIV-1, 6-(4-phenylphenoxy)hexan-1-ol was added to the cell cultures at concentrations of 15 and 7.5 μg/ml. After 4 days the number of synctial cells in the cell culture and the amount of p24 antigen, also a measure of viral replication, were determined.

[2] = test system: HIV and other retroviruses; settings: previously shown; cited from earlier work

Compound | IC50 [1] | other results
OCCCCCCOc1ccc(OCc2ccccc2)cc1 [6-(4-Benzyloxyphenoxy)hexan-1-ol] | 1 to 10 µg/mL (≈ 3.33 to 33.3 µM) | 
OCCCCCCOc1ccc2ccccc2c1 [6-(2-Naphthylenyloxy)hexan-1-ol, 6-(2-naphthylenyloxy)hexan-1-ol] | 5 to 10 µg/mL (≈ 20.5 to 40.9 µM) | 
OCCCCCCOc1ccc(-c2ccccc2)cc1 [6-(4-Phenylphenoxy)hexan-1-ol] | 2.5 to 5 µg/mL (≈ 9.25 to 18.5 µM) | Syncytial count (HIVlGB8 strain of HIV-1; 7.5 μg/ml): 8; Syncytial count (HIVlGB8 strain of HIV-1; 15 μg/ml): 0; P24 antigen (HIVlGB8 strain of HIV-1; 15 μg/ml, untreated 801): 62 pg × 10^3 /ml; inhibition at 7.5 µg/mL (HIVlGB8 strain of HIV-1; Human immunodeficiency virus 1, T-cell, 96 h, 7.5 μg/ml, syncytial count vs untreated): 72%; inhibition at 15 µg/mL (HIVlGB8 strain of HIV-1; Human immunodeficiency virus 1, T-cell, 96 h, 15 μg/ml, syncytial count vs untreated): 100%
OCCCCCCOc1ccc(Cc2ccccc2)cc1 [6-(4-Benzylphenoxy)hexan-1-ol] | 1 to 10 µg/mL (≈ 3.52 to 35.2 µM) | 
Cc1cc(C)c(OCCCCCCO)c(C)c1 [6-(2,4,6-Trimethylphenoxy)hexan-1-ol, 6-(2,4,6-trimethylphenoxy)hexan-1-ol] | 5 µg/mL (≈ 21.2 µM) | 
OCCCCOc1ccc(OCc2ccccc2)cc1 [4-(4-Benzyloxyphenoxy)butan-1-ol, 4-(4-Benzyloxyphenoxy)-butan-1-ol] | 1 to 10 µg/mL (≈ 3.67 to 36.7 µM) | 
heparin |  | activity against HIV and other retroviruses [2]: activity against HIV and other retroviruses
O=C(O)CCC(=O)OCCCCCCOc1ccc(-c2ccccc2)cc1 [6-(4-PhenYlphenoxV)-1-hexYl succinate (monoester)] | 1 to 10 µg/mL | 
OCCCCCCOc1ccccc1 [6-Phenoxyhexan-1-ol, 6-phenoxyhexan-1-ol] | 1 µg/mL (≈ 5.15 µM) | 
O[C@H]1[C@H](O)[C@@H](O)CN2CC[C@H](O)[C@H]12 [castanospermine] |  | activity against HIV and other retroviruses [2]: activity against HIV and other retroviruses
